Counter-ions that a name gives are not always drawn. Non-standard residues stand in square brackets, D forms with d. Residues, ends and D or L forms follow the SMILES beside them. No end group written: not given here. dTrp(2-Me) = Cc1[nH]c2ccccc2c1C[C@@H](N)C(=O)O; d2Nal = N[C@H](Cc1ccc2ccccc2c1)C(=O)O
Columns and labels:
Assay type in all cases: cell-based
[1] = test system: human vascular smooth muscle cells; experiment: PDGF-induced migration of human vascular smooth muscle cells (Boyden's chamber); conditions: for action on the PDGF-induced migration of vascular smooth muscle cells (summary of Test 1): Test 1, summary statement; for suppressive action on PDGF-induced migration / action on PDGF-induced migration: human vascular smooth muscle cells, FIG. 4; for suppressive action on PDGF-induced migration: compound at 10 nM
Experimental: (§1) Human vascular smooth muscle cells were cultured in SmBM with the additive factors in a culture incubator (37° C., 5% CO2/95% air) and cells at the 5th-9th passage were used in the test. Rabbit vascular smooth muscle cells were obtained by an explant technique from the media of rabbit thoracic aorta and cultured in DMEM with 10% fetal bovine serum; cells at the 5th-7th passage were used in the test.
(§2) Cells that proliferated to confluence were detached with trypsin, washed twice with an additive factor free medium, dispersed in SmBM containing 0.1% fetal bovine serum and prepared to a cell density of 5×10^5 cells/mL. Migration of cells was assayed according to Koyama et al. method (J. Biol. Chem. (1993) 268:13301-13308) using a 48-well Boyden's chamber (Neuro probe). To be more specific, 28 μL of SmBM containing 10 ng/mL of PDGF and 0.1% FBS was placed in the lower chamber and 50 μL of a cell dispersion preliminarily incubated with each assay compound for 10 minutes was placed in the upper chamber. The upper chamber and the lower chamber were separated by a polycarbonate filter (having pores 8 μm in diameter) precoated with type I collagen (Nitta Gelatin Inc.) Since the placement of the cell dispersion, the Boyden's chamber was incubated in a culture incubator (37° C., 5% CO2/95% air) for 4 hours. The cells on the upper side of the filter were scraped off and the cells that had migrated to the lower side of the filter were fixed in methanol and stained with Diff-Quick staining solution (International Reagents Corporation). The filter had been air-dried on a glass slide and sealed with Enteran New. The cells were counted under a high-power microscope (×200) in 4 fields per well and the number of cells that had migrated was averaged to determine the migration activity.
The result of each treated group was represented by the mean±standard deviation for 3 wells. Statistical significance was estimated by one-way ANOVA, if p value was less than 5%, followed by Dunnett method to compare between vehicle-treated group and the others in the presence of a migration inducer. Values of p less than 5% were considered to be significant.

Human mesangial cells = experiment: PDGF-induced migration of human mesangial cells (Boyden's chamber)
Experimental: as §2, with “activity. […]” for “activity.”

[2] = test system: rabbit vascular smooth muscle cells; experiment: PDGF-induced migration of rabbit vascular smooth muscle cells (Boyden's chamber); conditions: treatment with 10 nM, FIG. 3
Experimental: as §1
Cells that proliferated to confluence were detached with trypsin, washed twice with an additive factor free medium, dispersed in SmBM containing 0.1% fetal bovine serum and prepared to a cell density of 5×10^5 cells/mL. Migration of cells was assayed according to Koyama et al. method (J. Biol. Chem. (1993) 268:13301-13308) using a 48-well Boyden's chamber (Neuro probe). To be more specific, 28 μL of SmBM containing 10 ng/mL of PDGF and 0.1% FBS was placed in the lower chamber and 50 μL of a cell dispersion preliminarily incubated with each assay compound for 10 minutes was placed in the upper chamber. […] The cells were counted under a high-power microscope (×200) in 4 fields per well and the number of cells that had migrated was averaged to determine the migration activity. […]

Compound | action on the PDGF-induced migration of vascular smooth muscle cells (summary of Test 1) [1] | suppressive action on PDGF-induced migration [1] | other results
CN1N=C2CCN(C(=O)[C@@H](COCc3ccccc3)NC(=O)C(C)(C)N)C[C@@]2(Cc2ccccc2)C1=O [CP-424,391, capromorelin] | potent inhibitory action | significant suppressive action | –
C[C@H](NC(=O)[C@@H](Cc1ccc2ccccc2c1)NC(=O)[C@@H](C)N)C(=O)N[C@@H](Cc1c[nH]c2ccccc12)C(=O)N[C@H](Cc1ccccc1)C(=O)N[C@@H](CCCCN)C(N)=O [KP-102, Pralmorelin dihydrochloride] (H-[dA][d2Nal]AW[dF]K-NH2) | potent inhibitory action | – | concentration with significant suppression of PDGF-induced migration (Human mesangial cells; FIG. 8): ≥ 0.1 nM; suppressive action on PDGF-induced migration [2]: significant suppressive action
CC(C)(N)C(=O)N[C@H](COCc1ccccc1)C(=O)N1CCC2(CC1)CN(S(C)(=O)=O)c1ccccc12 [MK-0677, ibutamorelin methanesulfonate] | potent inhibitory action | significant suppressive action | –
CNC(=O)[C@@H](Cc1ccccc1)N(C)C(=O)[C@@H](Cc1ccc2ccccc2c1)N(C)C(=O)/C=C/CC(C)(C)N [NN-703, tabimorelin] | potent inhibitory action | significant suppressive action | –
Cc1[nH]c2ccccc2c1C[C@@H](NC(=O)[C@@H](N)Cc1cnc[nH]1)C(=O)N[C@@H](C)C(=O)N[C@@H](Cc1c[nH]c2ccccc12)C(=O)N[C@H](Cc1ccccc1)C(=O)N[C@@H](CCCCN)C(N)=O [hexarelin] (H-H[dTrp(2-Me)]AW[dF]K-NH2) | potent inhibitory action | significant suppressive action | –
GH: recombinant human growth hormone (Wako Pure Chemical Industries, Ltd.) | no action | – | action on PDGF-induced migration ([1]; at 0.1 μg/mL): no action
GHRH: human-type growth-hormone releasing hormone (Peptide Institute, Inc.) (YADAIFTNSYRKVLGQLSARKLLQDIMSRQQGESNQERGARARL; ends and bridges not checked; UniProt P01286 32-75, looked up) | no action | – | action on PDGF-induced migration ([1]; at 10 nM): no action
GHRP-6 | potent inhibitory action | significant suppressive action | –
ghrelin | potent inhibitory action | – | suppression of PDGF-induced migration (Human mesangial cells; FIG. 9): This action was also verified; suppressive action on PDGF-induced migration [2]: significant suppressive action

Reference: patent US20050014675A1, “Cell migration inhibitor” (priority 2001, published 2005)
